Here are results for one compound from patent publication US5780025A, “Compositions and methods for the synthesis and assay of enkephalinase” (Genentech, Inc., priority 1993, dated 1998).

The test has as its target T1, purified rat kidney enkephalinase (Rattus norvegicus, UniProt P07861).
T1 construct: Rat kidney enkephalinase was purified to apparent homogeneity; from tissue; host or cells: rat kidney (male rats, membrane fraction, Triton X-100 solubilised)
T1 sequence (P07861 1-750): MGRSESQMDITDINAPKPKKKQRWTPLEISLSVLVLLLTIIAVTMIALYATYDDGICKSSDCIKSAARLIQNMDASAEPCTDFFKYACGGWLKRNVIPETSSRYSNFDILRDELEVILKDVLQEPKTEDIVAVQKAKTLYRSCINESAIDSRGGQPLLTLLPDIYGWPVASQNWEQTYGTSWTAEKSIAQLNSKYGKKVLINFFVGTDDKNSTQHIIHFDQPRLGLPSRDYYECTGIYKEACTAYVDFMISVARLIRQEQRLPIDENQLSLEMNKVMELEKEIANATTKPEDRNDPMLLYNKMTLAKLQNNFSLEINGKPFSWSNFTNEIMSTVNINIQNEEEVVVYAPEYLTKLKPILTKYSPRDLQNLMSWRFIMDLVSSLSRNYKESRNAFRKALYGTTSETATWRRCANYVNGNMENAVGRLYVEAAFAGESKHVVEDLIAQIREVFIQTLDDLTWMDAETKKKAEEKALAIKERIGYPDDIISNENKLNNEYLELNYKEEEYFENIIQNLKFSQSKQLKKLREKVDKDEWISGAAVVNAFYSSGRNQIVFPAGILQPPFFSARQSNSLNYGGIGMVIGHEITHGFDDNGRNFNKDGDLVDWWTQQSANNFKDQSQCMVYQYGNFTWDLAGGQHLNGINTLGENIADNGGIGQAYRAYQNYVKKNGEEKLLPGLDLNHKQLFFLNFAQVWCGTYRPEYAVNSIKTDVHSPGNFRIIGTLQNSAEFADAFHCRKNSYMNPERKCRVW
As to the kind of experiment: HPLC analysis of the hydrolysis of peptides by enkephalinase, without and with thiorphan. The format is biochemical. To be noted: 100 nM thiorphan; peptides 1 mM, 1 hr at 37° C., 5 ng enzyme.

Each structure is given as a SMILES string.

For the compound `O=C(O)CNC(=O)C(CS)Cc1ccccc1` (stereo not shown) [Thiorphan], the “inhibition of the hydrolysis of all substrates” value is reported as “completely inhibited”.
